# Assays:
# [1] = Appearance on dissolving/dispersing in water or excipient solution; assay type: physicochemical; settings: 5.0 mg·mL^–1 drug; with 260.0 mg·mL^–1 PEG400 or 20.0 mg·mL^–1 HA where named
# Procedure: PTP self-assemblies were prepared by adding 5.0 mg of PTP to 1.0 mL of a water, followed by vortexing for 1 min. For PTP@PEG coassemblies, 260.0 mg of PEG400 was mixed with 1.0 mL of the chosen water-based solution. This PEG400 solution was then added to 5.0 mg of PTP powder, and the resulting mixture was vortexed for 1 min. PTP@HA coassemblies were prepared by first dispersing 20.0 mg of HA in 1.0 mL of the selected water-based solution. Following this step, the resulting HA solution was added to 5.0 mg of PTP powder. The final mixture was vortexed for 1 min. To prepare the PTX@PEG control system, 1.3 g of PEG400 was mixed with 5.0 mL of water. Then, 25.0 mg of PTX was added to the solution, and the mixture was vortexed for 1 min. Similarly, the PTX@HA control system was prepared by dispersing 100.0 mg of HA in 5.0 mL of water. Subsequently, 25.0 mg of PTX was added, and the mixture was vortexed for 1 min.
# [2] = tested on: human colon HCT116-Luc cells; assay: CCK8 antiproliferation assay, HCT116-Luc; assay type: cell-based; settings: 48 h treatment
# Procedure: (§1) The mouse breast cancer cell line 4T1 and the human ovarian cancer cell line SKOV3 were cultured in RPMI 1640 medium supplemented with 10% fetal bovine serum, 100 units·mL^–1 penicillin, and 100 μg·mL^–1 streptomycin. The human lung cancer cell line A549 and the luciferase-expressing human colorectal carcinoma cell line HCT116-Luc were cultured in high-glucose DMEM medium supplemented with 10% fetal bovine serum, 100 units·mL^–1 penicillin, and 100 μg·mL^–1 streptomycin. All cell lines were maintained at 37 °C in a Steri-Cycle 371 incubator (Thermo Scientific, USA) with a humidified atmosphere of 5% CO2. Only cells between passages 5 and 15 were used for cell-based experiments.
# (§2) The antiproliferative activity of PTP was evaluated using the Cell Counting Kit-8 (CCK8) assay. PTX solution served as a positive control. Cell suspensions were prepared at a density of 3 × 10^4 cells·mL^–1 and seeded in 96-well plates at a volume of 100 μL per well. The plates were incubated for 24 h to allow cell attachment and growth. Subsequently, the culture media were replaced with fresh media containing varying concentrations of PTX or PTP solutions (100 μL per well), and the cells were incubated for an additional 48 h (n = 3). Control wells received fresh culture media alone (n = 3). […] Finally, the absorbance was measured at 450 nm using a microplate reader (Synergy H1, BioTek, USA). […]
# human lung A549 cells = assay: CCK8 antiproliferation assay, A549; assay type: cell-based; settings: A549, 48 h treatment
# Procedure: as §1, §2
# Balb/c mice = assay: Maximum tolerated dose / survival in mice; assay type: in vivo, mouse; settings: iv, PTP 100 mg·kg^–1, 14 days
# [3] = Serum biochemistry safety assessment; assay type: in vivo, Balb/c mice; settings: mice, iv 10 mg·kg^–1 PTX equivalent, q.o.d. × 5, day 10; PTP versus PTP@PEG
# Procedure: In a related safety assessment, female Balb/c mice (18–22 g, n = 3) were fasted for 12 h, then treated intravenously with either 5% G, PTX solution, PTP, or PTP@PEG using the previously described dosing regimen (10 mg·kg^–1 PTX equivalent, q.o.d. × 5). On day 10, blood was collected and then processed to obtain serum by centrifugation (2000 rpm, 10 min, 4 °C). Serum samples were subsequently analyzed for biochemical markers using a Chemray 240 automated analyzer (Rayto Life and Analytical Sciences Co., Ltd., China).
structure (smiles),measurement,setting,value
"CC(=O)O[C@H]1C(=O)[C@@]2(C)[C@H]([C@H](OC(=O)c3ccccc3)[C@]3(O)C[C@H](OC(=O)[C@H](OC(=O)CCP(=O)(O)O)[C@@H](NC(=O)c4ccccc4)c4ccccc4)C(C)=C1C3(C)C)[C@]1(OC(C)=O)CO[C@@H]1C[C@@H]2O [PTP, PTX-2’–OOC-P]",appearance of the system,[1],transparent solution
same,IC50,[2],12.5 nM
same,IC50,human lung A549 cells,13.2 nM
same,fatalities,Balb/c mice,No fatalities
same,blood urea nitrogen (BUN) and creatinine (CREA) levels,[3],comparable
